This is an account of results in US20250034525A1, “CONSTRUCTION METHOD, DETECTION METHOD, AND APPLICATION OF IN VITRO TISSUE MODEL OF DIABETIC CARDIOMYOPATHY” (HUBEI UNIVERSITY, priority 2023, published 2025).

What all share (format): cell-based
In data set [1] the test system is human engineered heart tissue (hEHT). Briefly: Contractility detection of human EHT by mechanical assay (force transducer, stretch). The protocol: 1) After EHT was constructed and cultured for 5-7 days (the medium was changed every other day), the EHTs had good structure and beat regularly.
(§1) 2) EHT was stimulated by 500 μM PA, and for the control group, it contained the same concentration of BSA and ethanol. After 24 hours and 72 hours of stimulation, the supernatant and tissue samples were collected for functional detection.
3) A contractility detection system by mechanical assay: the mechanical characteristics of the bundle were detected by using a mechanical measurement platform, in which the bath, platinum electrode, tissue fixation device, and assembly form were self-designed, and other components such as sensors, amplifiers, digital-to-analog converters, data acquisition software, stepper motors, supporting components, temperature controllers and stimulators were all commercially available and assembled in-house after procurement.
4) Experimental steps for contractility detection by mechanical assay: the instrument was preheated for 30 minutes in advance, and the sensor was calibrated with precision weights by gravity. The Tyrode's Solution containing 1.8 mM CaCl2 was put into a 37° C. water bath for preheating in advance, and the platform was set to 37° C. The bundle was dipped into the Tyrode's Solution, and both ends were fixed with specimen needles, wherein one of which was fixed on the sensor and the other was fixed on the bath. Data were collected after the microstructure was balanced for 2 min. Start the electrical stimulator, and stimulate the bundle electrically at a voltage of 10 V and frequencies of 1, 1.5, 2, 2.5, and 3 Hz. Start the stepper motor to control software to start the programmed stretching program, and stretch the bundle from the initial state (8 mm) by 12% (0.96 mm) of the initial length, stretching 2% (0.16 mm) each time, collecting data for 40 s in each stretching state, and collecting contraction force data under different stretching states. After stretching, end the collection and save the data. The collected data were analyzed by the customized program MATLAB software.

The test system is the same in data set [2]. Briefly: Optical mapping detection of human EHT electrical conduction. The protocol:
1) The electrode was made of 0.2 mm platinum wire, and the conductive function was tested using a sealed membrane nickel wire interface.
2) Fluo-4/RHOD2 was dissolved in DMSO (dimethyl sulfoxide) with a volume ratio of 1:1 to prepare a stock solution, which was then added into EHT medium at a ratio of 1:1,000 (working solution), incubated at 37° C. for 20 min, followed by washing with DPBS twice, then incubated with serum-free EHT medium at 37° C.
3) Preparation of medium for imaging: 10 μM Blebbistatin was added into the Tyrode's Solution or serum-free EHT medium in a volume ratio of 1:2,000 for imaging. The medium for imaging was added into a PDMS dish, the EHT was fixed on the dish with a specimen needle, put in a 41° C. temperature control chamber, and the electrode was put on one side of the EHT; an optical mapping camera was used for formal imaging, and the preview speed of 600 ms was recorded in 10 seconds, then recording was conducted in the cases where there was no electrical stimulation and 1 Hz electrical stimulation, respectively, in which the laser intensity was MAX: 12-16%.
The collected data were analyzed by optical mapping software.

Data set [3] shares this test system. Nature of the data set: LDH myocardial injury marker in hEHT model. As to conditions: 500 μM PA, 72 h stimulation. The protocol: In the present disclosure, an in vitro tissue model of diabetic cardiomyopathy obtained by the above construction method is also provided. According to the disclosure, it is identified that a diabetic cardiomyopathy tissue model is generated with myocardial contractility that ranges from unchanged (1 day) to decreased (3 days), concomitant with the appearance of a myocardial fibrosis phenotype by dynamic stimulation of hEHT with 500 μM PA.
as §1

Data set [4] has the same test system. Nature of the data set: H&E staining and immunofluorescence staining of human EHT (fibrosis). The protocol:
For the morphological and histological observation after Bundle stimulation, the tissue was first treated by conventional paraffin embedding methods, and then the tissue was stained by basic staining and immunofluorescence staining after slicing. The specific steps were as follows: • (1) Cleaning the bundle twice using DPBS without calcium and magnesium ions. • (2) Fixing the bundle with 4% PFA (Paraformaldehyde) at room temperature for 15 min. • (3) Placing the fixed bundle in a paraffin tissue embedding frame and rinsing it with running water for 2 h. • (4) The […] bundle was subjected to gradient dehydrating and wax dipping using a Dewaxer (Hisure Scientific Co., Ltd.) with a total of 12 cylinders under the following conditions: 70% ethanol for 1 h, 80% ethanol for 1 h, 80% ethanol for 0.5 h, 90% ethanol for 0.5 h, 90% ethanol for 0.5 h, 100% ethanol for 0.5 h, xylene for 0.5 h, xylene for 0.5 h, paraffin at 63° C. for 5 min, paraffin at 63° C. for 5 min and paraffin at 63° C. for 5 min. • (5) After the dehydrated Bundle was placed at the bottom of the iron frame molding tool with an appropriate size, the plastic embedding frame was placed on the iron frame molding tool, and then placed on the freezing platform. […] After adding the anti-fluorescence quencher dropwise, the coverslip was covered, and the slide was mounted with nail polish.

The test system of data set [5] is human pluripotent stem cell-derived cardiomyocytes. Briefly: CCK8 survival rate of human pluripotent stem cell-derived cardiomyocytes (planar monolayer). As to conditions: 250 μM PA, 24 h, versus 30 mM Glucose and 10 nM ET-1 + glucocorticoid, single or combined factors. The protocol: FIG. 2A-FIG. 2B show the results of confirming the effects of different metabolic factors on survival rate of the cardiomyocytes in the present disclosure.
3) Diluting PA with a final concentration of 250 μM, 500 μM, and 750 μM using cells or EHT medium to stimulate human-derived cardiomyocytes or EHTs. An equivalent amount of ethanol was dissolved in 10% BSA, which was diluted with medium finally as a control solution.
In the present disclosure, firstly, differentiated human cardiomyocytes were paved into planar monolayer cells, and then the cell survival rate was detected by adding 30 mM Glucose, 250 μM PA, 10 nM endothelin (ET-1) and […] glucocorticoid to the medium as single or combined factor(s), respectively, it is identified that the most obvious diabetic stimulus factor for cardiomyocyte injury was PA (FIG. 2A-FIG. 2B). Furthermore, different concentrations of PA were used to stimulate cardiomyocytes, and the concentration and time-dependent effects were evaluated (FIG. 3A). The injury effect of PA was determined through myocardial injury marker LDH (FIG. 3B).

Setting [6] is: Empagliflozin added with 500 μM PA, 24 hours' stimulation.

On to `OC[C@H]1O[C@@H](c2ccc(Cl)c(Cc3ccc(O[C@H]4CCOC4)cc3)c2)[C@H](O)[C@@H](O)[C@@H]1O` [Empagliflozin], for which the “number of abnormal diastolic peaks of PA-stimulated hEHT” value in data set [1] (Empagliflozin added with 500 μM PA, under stretch conditions) is “reduced number”. In addition, in data set [2] (setting [6]), the “APD80 of PA-stimulated human EHT” value is given as “improved”, the “contraction amplitude of PA-stimulated human EHT” value is “effectively recover” and the “electric signal conduction velocity of PA-stimulated human EHT” value is “effectively recover”.
In the case of `CCCCCCCCCCCCCCCC(=O)O` [PA, palmitic acid], in data set [1] (500 μM PA, 24 h stimulation), the “abnormal relaxation (diastolic) peak” value is “abnormal relaxation peak”, the “myocardial relaxation time (diastolic duration)” value was “prolonged” and the “positive contractility (contraction force)” value is “did not affect”. Besides, in data set [1] (500 μM PA, 72 h stimulation), the “abnormal peaks (diastolic)” value is listed as “more frequent”, the “inotropic force (contraction force)” value is “significant decrease” and the “relaxation time (diastolic duration)” value is listed as “more frequent prolongation”. For the same compound, in data set [3], the LDH result is on record as “increased significantly”. Besides, in data set [4] (24 hours after PA stimulation), the “pathological changes and level of fibrosis inside human EHT” value was “no obvious pathological changes and changes in the level of fibrosis”. The “fibrosis inside the heart tissue” value in data set [4] (72 hours after PA stimulation) is reported as “obvious fibrosis”. Besides, the “cardiomyocyte survival rate (CCK8)” value in data set [5] was “lowest”. In data set [2] (500 μM PA, 6 h stimulation), the APD50 entry is on record as “obviously increased”, the APD80 entry is listed as “obviously increased”, the contraction amplitude result is “not decreased” and the “electric signal conduction velocity” value is recorded as “not decreased”.
